System: Wistar rats
Assay: Postprandial maximum increase of blood glucose in rat after oral administration of cooked white rice and triolein
Type: in vivo
Settings: for Postprandial maximum increase of blood glucose (maximum increase value from initial value, relative value based on 100 for control group): with 2 mg white rice and 1.5 μg triolein per g body weight, fasted male Wistar rats, average±standard error
Experimental: To white rice (Koshihikari produced in Tochigi prefecture), water (1.5 times equivalent to the volume of the white rice) was added to allow the rice to absorb the water for 30 minutes. Then, the rice was cooked with a rice cooker (ZOJIRUSHI microcomputer-controlled rice cooker NS-KG05, manufactured by Zojirushi Corporation). Water and triolein (manufactured by Sigma-Aldrich Corporation) were added to the cooked rice, followed by homogenization until the mixture was sufficiently homogenized, thereby yielding a sample for administration. The sample for administration was orally probe-administered to a group at 2 mg of white rice per g body weight and 1.5 μg of triolein per g body weight (the group as a control group). Each of the purified cycloartenol produced in Example 1 described above was added to a sample for administration (dissolved in triolein). Each of the resultants was orally probe-administered to a group at 2 mg of white rice per g body weight, 1.5 μg of triolein per g body weight, and 0.075 μg, or 0.15 μg, of cycloartenol equivalent per g body weight (the groups as Test group 1 and 2). Further, purified 24-methylenecycloartanol was added to a sample for administration (dissolved in triolein). The resultant was orally probe-administered to a group at 2 mg of white rice per g body weight, 1.5 μg of triolein per g body weight, and 0.15 μg of 24-methylenecycloartanol equivalent per g body weight (the group as Comparative group).
8-week old male Wistar rats (supplied by Japan SLC Inc.), after 15 hours of fasting, were divided into groups each consisting of 10 rats with their body weight being almost the same between the groups. Immediately after the administration to each group, blood sample was collected from tail vein sequentially. The blood sample was measured for its blood glucose level by using ACCU-CHEK AVIVA (manufactured by Roche Diagnostics GmbH) to calculate the maximum increase of blood glucose.
Results are represented as average±standard error, and statistical significant differences between groups were determined by the Dunnett's test with respect to the control group (*p <0.05).

[1] = 0.15 μg per g body weight, *p<0.05 vs control (Dunnett)

SMILES | Postprandial maximum increase of blood glucose (maximum increase value from initial value, relative value based on 100 for control group) [1] | postprandial increase of blood glucose (result in words) (0.075 μg per g body weight, rat) | Postprandial maximum increase of blood glucose (maximum increase value from initial value, relative value based on 100 for control group) (0.075 μg per g body weight) | postprandial increase of blood glucose (result in words) (0.15 μg per g body weight, rat) | effect of inhibiting the postprandial increase of blood glucose compared with 24-methylenecycloartanol (rat, comparison at 0.15 μg per g body weight)
C=C(CC[C@@H](C)[C@H]1CC[C@@]2(C)[C@@H]3CC[C@H]4C(C)(C)[C@@H](O)CC[C@@]45C[C@@]35CC[C@]12C)C(C)C [24-methylenecycloartanol, reference compound] | 89.25 ± 4.32 relative value based on 100 for control group | – | – | – | –
CC(C)=CCC[C@@H](C)[C@H]1CC[C@@]2(C)[C@@H]3CC[C@H]4C(C)(C)[C@@H](O)CC[C@@]45C[C@@]35CC[C@]12C [cycloartenol] | 79.74 ± 7.71* relative value based on 100 for control group | tended to be decreased | 92.03 ± 3.16 relative value based on 100 for control group | significantly inhibited | stronger than that of 24-methylenecycloartanol

— patent US8501721B2, “Postprandial hyperglycemia-improving agent” (Kao Corporation, priority 2009, dated 2013)
